Test results reported in patent US20130096105A1, “ArylSulfonamide Based Matrix Metalloprotease Inhibitors” (NOVARTIS AG, priority 2008, published 2013).
Like-named read-outs stand apart in the source and are kept apart here.

Experiments:
[1] = biological target: Collagenase-3 (MMP-13) (Homo sapiens, UniProt P45452); assay: Collagenase-3 (MMP-13) inhibitory activity, fluorogenic peptide substrate cleavage; assay type: biochemical
Protocol: (§1) Gelatinase (MMP-2) inhibitory activities can be determined as follows: Stock solutions of substrate (MCA-Lys-Pro-Leu-Gly-Leu-Dpa-Ala-Arg-NH2) are prepared in DMSO at a concentration of 1.4 mM. Stock solutions of inhibitors (0.03 μM-3 mM) are also prepared in DMSO. The inhibitors are diluted into the assay solutions, and the controls use an equal volume of DMSO so that the final DMSO concentration from the inhibitor and substrate dilutions in all assays is 1.0%. Assays are performed in an assay buffer (100 mM sodium chloride, 10 μM ZnCl. Sub 2, 10 mM CaCl2, 100 mM Tris-Cl pH7.5, 0.05% Brij-35), containing 1.0% DMSO from the substrate and inhibitor additions. The substrate concentration used in the assays is 5 μM. The assays are carried out at 20-25° C. The fluorescence changes, as a result of substrate cleavage, are monitored using an excitation wavelength of 325 nm and an emission wavelength of 405 nm. The reaction mixtures are added in duplicate into appropriate wells of a 384-well assay plate. The reaction mixtures are preincubated with the inhibitors for 60 minutes The reactions are started by the addition of MMP substrate, and the fluorescence intensity changes are measured after 60 minutes The apparent enzyme activity in the presence of an inhibitor is then compared with that in the absence of any inhibitor to determine the inhibition effect of the inhibitor. These techniques are within the knowledge of one skilled in the art. The inhibition results are expressed as the inhibitor concentrations required to effect 50% inhibition (IC50) of the enzyme activity, as compared with the control (non-inhibited) reactions.
Collagenase-3 (MMP-13) inhibitory activity is determined as described above. Recombinant pro-collagenase-3 is activated with 1 mM APMA, and stored in the assay buffer after extensive dialysis in the assay buffer.

[2] = biological target: T1, Gelatinase (MMP-2) (Homo sapiens, UniProt P08253); assay: Gelatinase (MMP-2) inhibitory activity, fluorogenic peptide substrate cleavage; assay type: biochemical
T1 sequence (P08253 110-660): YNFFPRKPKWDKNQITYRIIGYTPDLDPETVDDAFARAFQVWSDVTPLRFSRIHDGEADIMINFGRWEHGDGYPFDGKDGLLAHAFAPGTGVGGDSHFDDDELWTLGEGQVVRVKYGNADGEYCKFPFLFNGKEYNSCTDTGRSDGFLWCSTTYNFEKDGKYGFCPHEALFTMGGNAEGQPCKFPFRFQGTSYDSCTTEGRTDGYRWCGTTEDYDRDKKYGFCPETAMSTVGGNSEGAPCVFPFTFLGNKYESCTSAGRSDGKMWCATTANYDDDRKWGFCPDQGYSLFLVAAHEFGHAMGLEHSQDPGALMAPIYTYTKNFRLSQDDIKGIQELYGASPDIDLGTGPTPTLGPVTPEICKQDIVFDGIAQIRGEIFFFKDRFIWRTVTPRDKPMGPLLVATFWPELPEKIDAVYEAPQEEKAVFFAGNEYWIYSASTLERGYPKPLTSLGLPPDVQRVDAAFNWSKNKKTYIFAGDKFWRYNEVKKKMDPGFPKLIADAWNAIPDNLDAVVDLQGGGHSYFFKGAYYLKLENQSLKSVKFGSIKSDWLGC
Protocol: as §1

IC50 ([1]; read-out: MMP13 IC50) [µM]	IC50 ([2]; read-out: MMP02 IC50) [µM]	IC50 ([1]; read-out: IC50 (collagenase-3 MMP-13)) [µM]	IC50 ([2]; read-out: IC50 (gelatinase MMP-2)) [µM]	Compound
0.38	2.05			CCc1ccc(-c2ccc(C(=O)c3ccc(Cl)c(S(N)(=O)=O)c3)cc2)cc1 [Example 63, 2-Chloro-5-(4′-ethyl-biphenyl-4-carbonyl)-benzenesulfonamide]
7.55	4.05			NS(=O)(=O)c1cc(C(=O)c2ccc(-c3ccccc3F)cc2)ccc1Cl [Example 64, 2-Chloro-5-(2′-fluoro-biphenyl-4-carbonyl)-benzenesulfonamide]
1.61	1.18			NS(=O)(=O)c1cc(C(=O)c2ccc(-c3ccc(F)cc3)cc2)ccc1Cl [Example 65, 2-Chloro-5-(4′-fluoro-biphenyl-4-carbonyl)-benzenesulfonamide]
0.63	0.72			NS(=O)(=O)c1cc(C(=O)c2ccc(-c3ccc(Cl)cc3)cc2)ccc1Cl [Example 66, 2-Chloro-5-(4′-chloro-biphenyl-4-carbonyl)-benzenesulfonamide]
5.29	10.2			NS(=O)(=O)c1cc(C(=O)c2ccc(-c3cccc(Br)c3)cc2)ccc1Cl [Example 67, 5-(3′-Bromo-biphenyl-4-carbonyl)-2-chloro-benzenesulfonamide]
3.15	3.44			NS(=O)(=O)c1cc(C(=O)c2ccc(-c3cccc([N+](=O)[O-])c3)cc2)ccc1Cl [Example 68, 2-Chloro-5-(3′-nitro-biphenyl-4-carbonyl)-benzenesulfonamide]
4.01	11.4			CC(=O)Nc1cccc(-c2ccc(C(=O)c3ccc(Cl)c(S(N)(=O)=O)c3)cc2)c1 [Example 70, N-[4′-(4-Chloro-3-sulfamoyl-benzoyl)-biphenyl-3-yl]-acetamide]
1.4	1.09			O=C(c1ccc(-c2cccc(CO)c2)cc1)c1ccc(Cl)c(S(=O)(=O)O)c1 [Example 71, 2-Chloro-5-(3′-hydroxymethyl-biphenyl-4-carbonyl)-benzenesulfonic acid]
0.13	0.18			NS(=O)(=O)c1cc(C(=O)c2ccc(-c3ccc(C=O)cc3)cc2)ccc1Cl [Example 72, 2-Chloro-5-(4′-formyl-biphenyl-4-carbonyl)-benzenesulfonamide]
0.61	0.98			NS(=O)(=O)c1cc(C(=O)c2ccc(-c3ccc(C(=O)O)cc3)cc2)ccc1Cl [Example 73, 4′-(4-Chloro-3-sulfamoyl-benzoyl)-biphenyl-4-carboxylic acid]
0.24	0.93			COC(=O)c1ccc(-c2ccc(C(=O)c3ccc(Cl)c(S(N)(=O)=O)c3)cc2)cc1 [Example 74, 4′-(4-Chloro-3-sulfamoyl-benzoyl)-biphenyl-4-carboxylic acid methyl ester]
12	21.7			NS(=O)(=O)c1cc(C(=O)c2ccc(-c3ccccc3)cc2)ccc1Cl [Example 76, 5-(Biphenyl-4-carbonyl)-2-chloro-benzenesulfonamide]
23.1	29.1			Cc1cccc(-c2ccc(C(=O)c3ccc(Cl)c(S(N)(=O)=O)c3)cc2)c1 [Example 77, 2-Chloro-5-(3′-methyl-biphenyl-4-carbonyl)-benzenesulfonamide]
0.35	0.27			CN(C)c1ccc(C(=O)c2ccc(Cl)c(S(N)(=O)=O)c2)cc1 [Example 78, 2-Chloro-5-(4-dimethylamino-benzoyl)-benzenesulfonamide]
10.4	5.72			CCN(CC)c1ccc(C(=O)c2ccc(Cl)c(S(N)(=O)=O)c2)cc1 [Example 79, 2-Chloro-5-(4-diethylamino-benzoyl)-benzenesulfonamide]
0.113		~0.113	0.055	NS(=O)(=O)c1cc(C(=O)c2ccc(N3CCCC3)cc2)ccc1Cl [Example 80, 2-Chloro-5-(4-pyrrolidin-1-yl-benzoyl)benzenesulfonamide]
1.01	1.31			NS(=O)(=O)c1cc(C(=O)c2ccc(N3CC=CC3)cc2)ccc1Cl [Example 81, 2-Chloro-5-[4-(2,5-dihydro-pyrrol-1-yl)-benzoyl]-benzenesulfonamide]

IC50 ([1]; read-out: MMP13 IC50) [µM]	IC50 ([2]; read-out: MMP02 IC50) [µM]	IC50 ([1]; read-out: IC50 (collagenase-3 MMP-13)) [µM]	IC50 ([2]; read-out: IC50 (gelatinase MMP-2)) [µM]	Compound
0.86	1.15			NS(=O)(=O)c1cc(C(=O)c2ccc(-n3cccc3)cc2)ccc1Cl [Example 82, 2-Chloro-5-(4-pyrrol-1-yl-benzoyl)-benzenesulfonamide]
1.77	0.87			NS(=O)(=O)c1cc(C(=O)c2ccc(N3CCCCC3)cc2)ccc1Cl [Example 83, 2-Chloro-5-(4-piperidin-1-yl-benzoyl)-benzenesulfonamide]
7.54	1.35			CC1CCCN(c2ccc(C(=O)c3ccc(Cl)c(S(N)(=O)=O)c3)cc2)C1 (stereo not drawn) [Example 84, 2-Chloro-5-[4-(3-methyl-piperidin-1-yl)-benzoyl]-benzenesulfonamide]
0.57	2.05			NS(=O)(=O)c1cc(C(=O)c2ccc(N3CCC(c4ccccc4)CC3)cc2)ccc1Cl [Example 85, 2-Chloro-5-[4-(4-phenyl-piperidin-1-yl)-benzoyl]benzenesulfonamide]
7.67	> 30			NS(=O)(=O)c1cc(C(=O)c2ccc(N3CCC(Cc4ccccc4)CC3)cc2)ccc1Cl [Example 86, 5-[4-(4-Benzyl-piperidin-1-yl)-benzoyl]-2-chloro-benzenesulfonamide]
1.19	1.74			CN1CCN(c2ccc(C(=O)c3ccc(Cl)c(S(N)(=O)=O)c3)cc2)CC1 [Example 87, 2-Chloro-5-[4-(4-methyl-piperazin-1-yl)-benzoyl]-benzenesulfonamide]
1.84	0.96			NS(=O)(=O)c1cc(C(=O)c2ccc(N3CCOCC3)cc2)ccc1Cl [Example 88, 2-Chloro-5-(4-morpholin-4-yl-benzoyl)-benzenesulfonamide]
3.34	2.06			NS(=O)(=O)c1cc(C(=O)c2ccc(N3CCC3=O)cc2)ccc1Cl [Example 89, 2-Chloro-5-[4-(2-oxo-azetidin-1-yl)-benzoyl]-benzenesulfonamide]
10.8	13.8			NS(=O)(=O)c1cc(C(=O)c2ccc(N3CCCCCC3)cc2)ccc1Cl [Example 90, 5-(4-Azepan-1-yl-benzoyl)-2-chloro-benzenesulfonamide]
22.5	> 30			COc1ccc(C(=O)c2ccc(Cl)c(S(=O)(=O)NCCc3ccc([N+](=O)[O-])cc3)c2)cc1 [Example 91, 2-Chloro-5-(4-methoxy-benzoyl)-N-[2-(4-nitro-phenyl)-ethyl]-benzenesulfonamide]
20.7	22.8			NS(=O)(=O)c1cc(C(=O)c2ccc(Nc3ccccc3)cc2)ccc1Cl [Example 92, 2-Chloro-5-(4-phenylamino-benzoyl)-benzenesulfonamide]
13.7	26.5			NS(=O)(=O)c1cc(C(=O)c2ccc3ccccc3c2)ccc1Cl [Example 93, 2-Chloro-5-(naphthalene-2-carbonyl)benzenesulfonamide]
22.6	23.5			NS(=O)(=O)c1cc(C(=O)c2ccc3c(c2)CCC3)ccc1Cl [Example 94, 2-Chloro-5-(indane-5-carbonyl)-benzenesulfonamide]
6.21	3.97			NS(=O)(=O)c1cc(C(=O)c2cc[nH]c2)ccc1Cl [Example 95, 2-Chloro-5-(1H-pyrrole-3-carbonyl)-benzenesulfonamide]
14.7	10			NS(=O)(=O)c1cc(C(=O)c2cccs2)ccc1Cl [Example 96, 2-Chloro-5-(thiophene-2-carbonyl)-benzenesulfonamide]
0.63	1.21			NS(=O)(=O)c1cc(C(=O)c2ccc3nc[nH]c3c2)ccc1Cl [Example 97, 5-(3H-Benzoimidazole-5-carbonyl)-2-chloro-benzenesulfonamide]
8.31	2.25			Cc1nc2ccc(C(=O)c3ccc(Cl)c(S(N)(=O)=O)c3)cc2[nH]1 [Example 98, 2-Chloro-5-(2-methyl-3H-benzoimidazole-5-carbonyl)-benzenesulfonamide]
